According to US6395787B1, “Ocular hypotensive lipids” (Allergan Sales, Inc., priority 2000, dated 2002):

Experiments:
[1] = system: feline iris sphincter smooth muscle; experiment: Isolated cat iris sphincter smooth muscle contraction; conditions: for % Maximal contractile response mean χ ± SEM: reference contraction 10^−7 M PGF2α, n = 4
Description: (§1) Smooth muscle tension of isolated tissues was measured isometrically with force displacement transducers (Grass FT-03) and recorded on Grass Polygraphs (Models 7G and 79E). The organ baths contained Krebs solution maintained at 37° C. and gassed with 95% 02/5% CO2 to give a pH of 7.4. The Krebs solution had the following composition (mM): NaCl, 118.0; KCl, 4.7; KH2PO4, 1.2; CaCl2, 1.9; MgSO4, 1.18; NaHCO3, 25.0; glucose, 11.7; indomethacin, 0.001.
Adult domestic cats were sacrificed by intravenous overdose of sodium pentobarbital (Anthony, Arcadia, Calif.). The eyes were enucleated immediately and placed on ice. The iris sphincter muscle was mounted vertically under 50 to 100 mg tension in a jacketed 10 ml organ bath. A 60 min stabilization period was allowed before commencing each experiment. Activity was determined as contractile responses. Compounds were added cumulatively to the organ bath and at least 30 min was allowed for recovery, after complete wash-out, and return to baseline tension. […] No more than two compounds were tested in each tissue.

[2] = system: isolated rat aorta (TP receptor preparation); experiment: Isolated rat aorta contraction; conditions: 10^−6 and 10^−5 M
Description: as §1
Adult Sprague Dawley rats weighing 180-220 grams were anesthetized by CO2 inhalation and then decapitated and exsanguinated. The thoracic aorta was removed and cleaned of any adhering tissue. The lumen was flushed to remove any blood. The aorta was dissected into three small segments of 5-8 mm length. Each segment was mounted under 2 g of tension in a jacketed 10 ml organ bath with the aid of two wire hooks placed through the lumen of the vessel. This arrangement allowed for measurement of contraction forces developed by the circular smooth muscle. The tissues were allowed to equilibrate for 1 hour before compounds were added cumulatively to the organ baths. The response to 10^−7 M U-46619 (a thromboxane mimetic) was determined at the beginning and end of each experiment as a reference. A 30-45 minute recovery period was allowed after complete wash-out of drug. Only one test compound was examined in each tissue.

[3] = target: recombinant feline FP receptor (Felis catus, UniProt A0ABI7XJ69); experiment: Total inositol phosphate accumulation, HEK-293 cells with recombinant feline FP receptor; type: cell-based, cat; conditions: read-out: E.C.50, total inositol phosphate accumulation
Description: Ten days after transfection, hygromycin B resistant clones were individually selected and transferred to a separate well on a 24 well plate. At confluence each clone was transferred to one well of a 6 well plate, and then expanded in a 10 cm dish. Cells were maintained under continuous hygromycin selection until use. The stable cat FP receptor transfectants were similarly prepared using […]. Again cells were grown to 50-60% confluency on 10 cm plates and the plasmid pCEP4, incorporating cDNA inserts for the feline FP receptor, was transfected using lipofectin. Hygromycin B selection was started 48 hr post-transfection. Eight days after transfection, hygromycin B resistant clones were selected and transferred to 24 well plates. Ca^2+ signaling studies on recombinant cat and human FP receptors were performed in an identical manner to that described for the CRL 1497 cell studies.
Receptor-mediated phosphoinositide (PI) hydrolysis was determined by measuring the accumulation of total inositol phosphates (IP) in cells preincubated with ^3H-myoinositol. Stable cell lines of HEK 293 cells expressing human or cat FP receptors were plated in 10 cm dishes (10^6 cells per dish in DMEM with 10% FBS). […] The eluate was mixed with 10 ml Aquasol scintillation fluid (Packard Instrument Co.) and total [^3H] inositol phosphates was determined by a liquid scintillation counter.

[4] = system: dog pupil diameter; experiment: Dog pupil diameter; type: in vivo; conditions: 0.1%; for Pupil diameter (mm), test eye: n = 6
Description: Dog pupil diameter was measured using an optistick (a mm ruler which included half-circle references of standard widths (mm) for reference. Gently restraining the dog by hand, pupil diameter was determined by matching a half-circle to the pupil in normal room light. In dogs with very dark pupils a specialized penlight was used, but only very briefly to avoid pupil constriction. Pupil diameter was measured at the same time as IOP and hyperemia.

[5] = system: dog ocular surface hyperemia; experiment: Dog ocular surface hyperemia; type: in vivo; parameters: key: <1 trace 0.5; 1 mild 1; moderate 2; severe 3; conditions: throughout the 24 hr experimental period, trace for vehicle
Description: Ocular surface hyperemia was visually assessed and scored according to a system typically used clinically.
Ocular surface hyperemia was evaluated at the same time points as intraocular pressure measurement. It should be noted that untreated dog eyes frequently have a pink/red tone. Thus, values of trace or even mild are not necessarily out of the normal range.

Sequence of recombinant feline FP receptor (A0ABI7XJ69 entry or part of it): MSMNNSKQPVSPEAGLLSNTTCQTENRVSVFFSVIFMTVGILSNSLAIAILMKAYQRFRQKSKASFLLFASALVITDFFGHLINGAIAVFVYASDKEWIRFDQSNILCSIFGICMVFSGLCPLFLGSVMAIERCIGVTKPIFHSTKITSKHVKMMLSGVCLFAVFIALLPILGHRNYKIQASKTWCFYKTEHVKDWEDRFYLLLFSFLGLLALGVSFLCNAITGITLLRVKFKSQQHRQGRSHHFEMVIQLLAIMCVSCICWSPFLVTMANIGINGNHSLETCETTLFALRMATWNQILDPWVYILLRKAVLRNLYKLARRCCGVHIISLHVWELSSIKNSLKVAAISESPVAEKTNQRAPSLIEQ

EC50 ([1]; Felis catus, isolated feline iris sphincter, read-out: effective concentration (E.C.)50, contraction of cat iris sphincter smooth muscle): 58 nM
EC50 [3]: 524 nM
ocular surface hyperemia [5]: mild
Compound: CCCCC[C@H](O)/C=C/[C@@H]1[C@@H](C/C=C\CCCC(=O)NCCO)[C@@H](O)C[C@H]1O [PGF2α 1-ethanolamide, (5Z,8α,9α,11α,13E,15S)-9,11,15-trihydroxy-N-(2-hydroxyethyL)prosta-5,13-dien-1-amide]
% Maximal contractile response mean χ ± SEM ([1]; 10^−5 M): 126.0 ± 3.6%
% Maximal contractile response mean χ ± SEM ([1]; 10^−6 M): 119.2 ± 6.0%
% Maximal contractile response mean χ ± SEM ([1]; 10^−7 M): 77 ± 5.5%
% Maximal contractile response mean χ ± SEM ([1]; 10^−8 M): 2.7 ± 1.7%
threshold concentration ([1]; isolated feline iris sphincter contraction): ~10 nM
effect on the isolated rat aorta [2]: Residual activity occurred at high doses
Pupil diameter (mm), test eye ([4]; 0 HR (baseline)): 6.7 ± 0.2 mm
Pupil diameter (mm), test eye ([4]; 2 HR): 1.0 ± 0.4 mm
Pupil diameter (mm), test eye ([4]; 4 HR): 1.0 ± 0.3 mm
Pupil diameter (mm), test eye ([4]; 6 HR): 1.5 ± 0.4 mm
Pupil diameter (mm), test eye ([4]; 24 HR): 7.0 ± 0.3 mm
miosis ([4]; topical): marked miosis
